Laboratory results as given in ChEMBL document CHEMBL5727863, “Substituted imidazo[1,2-A]pyridin-2-ylamine compounds, and pharmaceutical compositions and methods of use thereof” (2020).

How the values were obtained:
[1] = biological target: Non-receptor tyrosine-protein kinase TYK2 (Homo sapiens, UniProt P29597); experiment: (§1) In Vitro Assays for Determining the Inhibition of Janus Kinases: The in vitro inhibition of recombinant human JAKs was determined as follow.Compounds were tested in LANTHASCREEN™ time-resolved fluorescence energy transfer (TR-FRET) enzymatic assays from Invitrogen. The human Janus kinase 1 (JAK1) used in the assay is the recombinant JAK1 catalytic domain (amino acids 866-1154) expressed and purified from insect cells (Invitrogen, Cat. No. PV4774). The human Janus kinase 2 (JAK2) used in the assay is the recombinant JAK2 catalytic domain (amino acids 808-1132) expressed and purified from insect cells (Invitrogen, Cat. No. PV4210). The human Janus kinase 3 (JAK3) used in the assay is the recombinant JAK3 catalytic domain (amino acids 781-1124) expressed and purified from insect cells (Invitrogen, Cat. No. PV3855). The human tyrosine kinase 2 (TYK2) used in the assay is the recombinant TYK2 catalytic domain (amino acids 833-1187) expressed and purified from insect cells (Invitrogen, Cat. No. PV4790). The substrate is a recombinant STAT1 expressed as a fusion with GFP (Green Fluorescent Protein) to act as a physiological substrate (Invitrogen, Cat. No. PV5211).Test compounds were prepared and diluted in DMSO in 3-fold serial dilutions for 10 doses to 100× of the final testing concentrations. The compounds were then further diluted to 4× by the kinase reaction buffer (Invitrogen, Cat. No. PV3189). The enzymatic reaction for compound testing was performed in a white 384-well polypropylene plate (Packard, Cat. No. 6005214) with a total reaction volume of 10 μL containing 440 ng/mL JAK1, 11 ng/mL JAK2, 400 ng/mL JAK3, or 200 ng/mL TYK2, 100 nM substrate, and 1 mM ATP. The assay started with loading 2.5 μL of JAK1, JAK2, JAK3, or TYK2 diluted in the kinase reaction buffer to wells, followed by addition of an equal volume of 4× compounds for 15-min incubation at room temperature for pre-treatment. The enzymatic reaction was initiated by addition of 5 μL of a mixture of the substrate and ATP prepared in the kinase reaction buffer. […]
[2] = biological target: Tyrosine-protein kinase JAK1 (Homo sapiens, UniProt P23458); experiment: as §1
[3] = biological target: Tyrosine-protein kinase JAK2 (Homo sapiens, UniProt O60674); experiment: as §1
Chain of Tyrosine-protein kinase JAK2 (O60674 whole entry): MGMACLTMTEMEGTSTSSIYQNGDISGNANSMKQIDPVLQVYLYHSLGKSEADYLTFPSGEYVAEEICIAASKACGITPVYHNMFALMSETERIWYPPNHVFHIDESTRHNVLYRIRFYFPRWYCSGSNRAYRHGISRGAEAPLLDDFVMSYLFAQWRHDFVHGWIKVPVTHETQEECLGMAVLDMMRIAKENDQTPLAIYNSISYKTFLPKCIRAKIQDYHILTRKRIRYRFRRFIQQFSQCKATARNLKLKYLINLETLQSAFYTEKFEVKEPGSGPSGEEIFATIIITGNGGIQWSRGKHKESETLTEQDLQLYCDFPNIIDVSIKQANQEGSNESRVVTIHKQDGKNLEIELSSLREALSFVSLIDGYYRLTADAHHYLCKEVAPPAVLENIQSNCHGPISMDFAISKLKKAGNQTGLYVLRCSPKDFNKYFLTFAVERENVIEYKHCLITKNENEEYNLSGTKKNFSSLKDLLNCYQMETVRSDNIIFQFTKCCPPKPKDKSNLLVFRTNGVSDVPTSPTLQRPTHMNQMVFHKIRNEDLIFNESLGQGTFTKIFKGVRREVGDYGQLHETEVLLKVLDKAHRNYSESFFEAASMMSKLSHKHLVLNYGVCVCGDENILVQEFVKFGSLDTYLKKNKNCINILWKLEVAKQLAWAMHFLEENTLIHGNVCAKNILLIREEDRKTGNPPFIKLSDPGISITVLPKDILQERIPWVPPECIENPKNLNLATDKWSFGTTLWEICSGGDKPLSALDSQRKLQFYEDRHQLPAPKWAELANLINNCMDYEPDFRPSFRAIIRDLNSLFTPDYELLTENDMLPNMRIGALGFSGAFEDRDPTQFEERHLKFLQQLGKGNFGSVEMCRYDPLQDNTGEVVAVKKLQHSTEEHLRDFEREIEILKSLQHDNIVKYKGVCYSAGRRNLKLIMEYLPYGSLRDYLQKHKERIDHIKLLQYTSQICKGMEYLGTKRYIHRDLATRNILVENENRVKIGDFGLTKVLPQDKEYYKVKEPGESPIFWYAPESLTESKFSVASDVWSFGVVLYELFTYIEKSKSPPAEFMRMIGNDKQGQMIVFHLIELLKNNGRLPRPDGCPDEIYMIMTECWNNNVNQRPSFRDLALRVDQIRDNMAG

Chain of Tyrosine-protein kinase JAK1 (P23458 whole entry): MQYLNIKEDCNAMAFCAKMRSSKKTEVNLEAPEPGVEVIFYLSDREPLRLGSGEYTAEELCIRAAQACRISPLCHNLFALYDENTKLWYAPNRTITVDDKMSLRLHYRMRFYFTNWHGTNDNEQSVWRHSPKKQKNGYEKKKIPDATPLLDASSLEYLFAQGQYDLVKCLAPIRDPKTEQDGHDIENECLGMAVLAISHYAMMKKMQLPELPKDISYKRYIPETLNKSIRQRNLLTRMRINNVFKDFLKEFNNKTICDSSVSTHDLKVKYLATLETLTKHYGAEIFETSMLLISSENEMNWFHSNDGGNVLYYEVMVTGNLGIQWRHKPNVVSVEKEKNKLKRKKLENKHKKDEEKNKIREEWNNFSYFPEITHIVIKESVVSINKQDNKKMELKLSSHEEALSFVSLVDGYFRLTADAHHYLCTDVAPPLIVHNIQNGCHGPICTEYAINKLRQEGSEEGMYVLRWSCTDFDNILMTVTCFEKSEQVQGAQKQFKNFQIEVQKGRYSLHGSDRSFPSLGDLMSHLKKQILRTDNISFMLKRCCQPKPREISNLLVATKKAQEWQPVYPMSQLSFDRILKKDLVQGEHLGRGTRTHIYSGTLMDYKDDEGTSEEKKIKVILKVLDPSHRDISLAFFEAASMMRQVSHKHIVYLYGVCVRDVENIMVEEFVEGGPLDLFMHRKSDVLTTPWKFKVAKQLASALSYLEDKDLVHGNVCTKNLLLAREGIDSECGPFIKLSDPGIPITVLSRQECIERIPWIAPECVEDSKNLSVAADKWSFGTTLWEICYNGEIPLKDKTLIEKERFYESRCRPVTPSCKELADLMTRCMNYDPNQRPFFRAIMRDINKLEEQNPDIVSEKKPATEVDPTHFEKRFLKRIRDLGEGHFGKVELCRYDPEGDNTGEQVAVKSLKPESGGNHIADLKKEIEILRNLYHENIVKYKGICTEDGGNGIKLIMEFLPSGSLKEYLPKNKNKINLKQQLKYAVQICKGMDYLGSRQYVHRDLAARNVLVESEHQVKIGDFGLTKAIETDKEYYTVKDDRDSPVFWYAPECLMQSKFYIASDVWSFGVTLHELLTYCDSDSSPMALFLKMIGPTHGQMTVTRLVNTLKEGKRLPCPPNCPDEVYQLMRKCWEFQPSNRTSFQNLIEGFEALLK
Chain of Non-receptor tyrosine-protein kinase TYK2 (P29597 whole entry, the tested form may be a part): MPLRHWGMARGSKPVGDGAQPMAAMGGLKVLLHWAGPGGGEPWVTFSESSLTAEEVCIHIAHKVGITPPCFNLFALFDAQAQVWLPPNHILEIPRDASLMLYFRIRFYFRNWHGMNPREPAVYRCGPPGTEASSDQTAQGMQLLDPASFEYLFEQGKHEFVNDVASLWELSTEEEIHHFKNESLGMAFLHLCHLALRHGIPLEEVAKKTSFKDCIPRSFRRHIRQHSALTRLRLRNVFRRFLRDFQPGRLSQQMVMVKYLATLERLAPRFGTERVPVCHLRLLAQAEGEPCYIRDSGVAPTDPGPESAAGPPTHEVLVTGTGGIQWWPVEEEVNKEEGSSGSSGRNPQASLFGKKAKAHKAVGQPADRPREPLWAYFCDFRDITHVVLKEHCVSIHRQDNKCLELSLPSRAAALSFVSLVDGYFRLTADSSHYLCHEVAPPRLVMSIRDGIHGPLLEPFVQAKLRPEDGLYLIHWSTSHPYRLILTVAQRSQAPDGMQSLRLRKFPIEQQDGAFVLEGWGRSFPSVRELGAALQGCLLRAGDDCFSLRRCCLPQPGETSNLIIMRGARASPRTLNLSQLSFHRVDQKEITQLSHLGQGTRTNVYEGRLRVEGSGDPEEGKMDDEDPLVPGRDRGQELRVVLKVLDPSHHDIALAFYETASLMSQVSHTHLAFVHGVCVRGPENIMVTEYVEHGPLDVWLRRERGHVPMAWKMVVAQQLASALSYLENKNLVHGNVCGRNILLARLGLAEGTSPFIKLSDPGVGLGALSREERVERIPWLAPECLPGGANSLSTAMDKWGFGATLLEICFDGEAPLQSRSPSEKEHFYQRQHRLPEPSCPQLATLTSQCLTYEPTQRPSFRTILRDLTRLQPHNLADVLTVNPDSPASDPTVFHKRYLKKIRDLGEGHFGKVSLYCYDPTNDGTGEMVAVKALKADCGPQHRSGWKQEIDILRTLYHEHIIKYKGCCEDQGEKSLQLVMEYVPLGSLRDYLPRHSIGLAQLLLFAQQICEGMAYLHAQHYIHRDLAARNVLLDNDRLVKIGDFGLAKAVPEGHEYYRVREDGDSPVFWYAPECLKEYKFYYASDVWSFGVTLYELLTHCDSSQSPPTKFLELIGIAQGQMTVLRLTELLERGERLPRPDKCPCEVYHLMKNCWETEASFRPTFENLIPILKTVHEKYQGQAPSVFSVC

IC50 [1]: > 5 µM
IC50 [2]: > 5 µM
IC50 [3]: > 5 µM
SMILES: N#CC1(c2ccc(-c3cccc4nc(NC(=O)C5CC5)cn34)cc2)CC1
